What all share (type): cell-based
For experiment [1], the system named is PC-3 human prostate cancer cells. Put plainly: MTT cell proliferation assay, PC-3. The following applies: for IC50: Homo sapiens, MTT, 24 hours, PC-3, mean ± S.D. Here is the method: (§1) Human prostate normal cell line (RWPE-1) and human prostate cancer cell lines; LNCaP and PC-3, were purchased from the American Type Culture Collection (ATCC, Manassas, Virginia, USA). LNCaP and PC-3 cells were grown in Roswell Park Memorial Institute medium (RPMI) supplemented with 10% heat-inactivated fetal bovine serum (FBS, Sigma-Aldrich, St. Louis, MO), 1% penicillin and streptomycin. RWPE-1 cells were maintained in Keratinocyte Serum Free Medium (K-SFM, ATCC) supplemented with bovine pituitary extract (BPE) and human recombinant epidermal growth factor (EGF). Mediums were supplemented with 10% heat-inactivated fetal calf serum (Sigma.), 100 U/ml penicillin and […] streptomycin (Flowlab, Sydney, Australia). All cells were maintained in a humidified atmosphere of 5% CO2 in air at 37°C incubator.
(§2) The anti-proliferative activity was evaluated by performing MTT assays as previously described with minor modifications. Briefly, cells were seeded 24 hours prior to treatment in a 96-well plate at 5×10^4 cells/well in order to obtain 70% to 80% confluent cultures. The compounds were dissolved in DMSO (Sigma Chemical Co., St. Louis, Missouri, USA) followed by a 2×serial dilution for 10 points ranged from 0.825 µM to 100 µM. The 96-well plate was incubated for 24 hours at 37°C in a humidified atmosphere with 5% CO2. At the end of incubation, 50 µl of MTT solution (2 mg/ml; Sigma) was added to each well. The plate was then incubated for 4 hours. All medium was removed and the purple formazan crystal formed at the bottom of the wells was dissolved with 200 µl DMSO for 20 minutes. The absorbance at 570 nm was read on a spectrophotometric plate reader (Hidex). The proportion of surviving cells was calculated as: […]
(§3) Dose-response curves were constructed to obtain the IC50 values. Experimental data were derived from 3 independent experiments. The selectivity index was obtained by mean IC50 RWPE-1/mean IC50 of LNCaP or PC-3.
(In general: Tetrazolium dyes change colour on reduction, which living cells bring about.)

Experiment [2] deals with LNCaP human prostate cancer cells. The experiment can be described thus: MTT cell proliferation assay, LNCaP. The settings on record: for IC50: Homo sapiens, MTT, 24 hours, LNCaP, mean ± S.D. The method, then: as §1, §2, §3
The test system of experiment [3] is RWPE-1 human normal prostate epithelial cells. Put plainly: MTT cell proliferation assay, RWPE-1. The following applies: 24 hours, RWPE-1 normal cells, mean ± S.D. Here is the method:
as §1, §2, §3

In general, IC50 refers to the concentration that inhibits the measured activity by half. Read a low IC50 as inhibition by little substance.

Take `Cc1cc2cc3n(c(=O)c2cn1)CCc1c-3[nH]c2ccccc12` [Angustidine, angustidine]: the values for the IC50 in experiment [1], in experiment [2] and in experiment [3] were 84.9 ± 1.48 µM, 140.27 ± 0.1 µM and 36.07 ± 0.05 µM, respectively.

On to `C=Cc1cncc2c(=O)n3c(cc12)-c1[nH]c2ccccc2c1CC3` [Angustine, angustine], for which the values for the IC50 in experiment [1], in experiment [2] and in experiment [3] were 122 ± 3.73 µM, 149.16 ± 0.09 µM and 98.39 ± 0.1 µM, respectively.

`CC(O)c1cncc2c(=O)n3c(cc12)-c1[nH]c2ccccc2c1CC3` (centres unmarked) [Angustoline, 1-(1-Hydroxyethyl)-7,8-dihydroindolo[2,3-a]pyridine[3,4-g]quinolizin-5(13H)-one]: the IC50 was found to be 67.3 ± 0.87 µM in experiment [1], 58.09 ± 0.05 µM in experiment [2] and 65.94 ± 0.04 µM in experiment [3].

Consider `O=c1c2cnccc2cc2n1CCc1c-2[nH]c2ccccc12` [Nauclefine, nauclefine], for which the 50% inhibitory concentration (IC50) in experiment [1] was 92.1 ± 1.28 µM; in experiment [2] it was 86.35 ± 0.09 µM; in experiment [3], 72.85 ± 0.06 µM.

On to `CC(=O)O[C@H]1C(=O)[C@@]2(C)[C@H]([C@H](OC(=O)c3ccccc3)[C@]3(O)C[C@H](OC(=O)[C@H](O)[C@@H](NC(=O)c4ccccc4)c4ccccc4)C(C)=C1C3(C)C)[C@]1(OC(C)=O)CO[C@@H]1C[C@@H]2O` [Paclitaxel, paclitaxel, reference compound], for which the IC50 in experiment [1] came out at 1.33 ± 0.02 µM; in experiment [2], 1.27 ± 0.04 µM; in experiment [3], 1.58 ± 0.06 µM. The “selectivity index (SI) PC-3” value in experiment [1] (mean IC50 RWPE-1/mean IC50 of PC-3) worked out at 1.19. Also, in experiment [2] (mean IC50 RWPE-1/mean IC50 of LNCaP), the “selectivity index (SI) LNCaP” value came to 1.24.

(Values after PMC3925085, “Subditine, a New Monoterpenoid Indole Alkaloid from Bark of Nauclea subdita (Korth.) Steud. Induces Apoptosis in Human Prostate Cancer Cells” (PLoS ONE, 2014).)
